Data from publication PMC5538626, “Structural and functional analysis of the GABARAP interaction motif (GIM)” (EMBO Reports, 2017).
Marks after values point to notes of the source that are not given here. Ends that are not written are not given here.

Experiments:
[1] = tested on: 6xHis-tagged LC3B and 6xHis-tagged GABARAP; assay: Peptide array, preference GABARAP versus LC3B (absorbance ratio); format: binding, human; details: absorbance GABARAP/LC3B or LC3B/GABARAP, cut-off 1.5-fold; mean of n = 3; Figs 1A, EV1B and C
Description: A high number of autophagy receptors or adaptor structures have been reported, yet the basis for their selective interaction with individual members of the ATG8 family is not well understood. We speculated whether the LIR motif alone is able to confer selectivity towards a mATG8 subfamily and whether we could derive a subfamily consensus motif from analysis of known mATG8 interaction partners. To address this question, we screened an array of peptides (presented in Fig EV1A and described in Materials and Methods) with the LIR sequences of 30 known and validated autophagy receptors and adaptors (Table 1) against all six human mATG8s for binding (Figs 1A and EV1B and C). In brief, biotinylated peptides were immobilized on streptavidin‐coated 96‐well plates and incubated with His6‐tagged mATG8 proteins. After washing steps, peptide‐bound mATG8 was detected in an ELISA reader using anti‐His antibodies directly conjugated to HRP (horse radish peroxidase; Fig EV1A).
Dashed red line depicts 1.5‐fold change cut‐off.
Due to the wide range of affinities of various LIR sequences towards the LC3/GABARAP proteins, we have normalized our results by dividing values for LC3B interaction by the corresponding value for interaction with GABARAP (Fig 1A, purple bars) and vice versa (Fig 1A, blue bars) to highlight the potential subfamily selectivity of each LIR sequence tested. We classified ratios greater than 1.5‐fold as an indication of a preferential interaction towards that particular LC3 or GABARAP family member. […] Using this information, we generated a sequence plot (Fig 1B) to ascertain whether there were any common sequence features of the GABARAP‐specific interaction proteins. In addition to the 12 sequences identified in this experiment as preferential GABARAP subfamily interactors, we also included known GABARAP interactors that were not included in our screen (ALFY and KBTBD7). […] The previously identified PLEKHM1‐LIR 19 has a high degree of similarity to this sequence. […] However, it is unclear whether this is the case in vivo.
Biotinylated peptides (JPT, Germany) were immobilized on streptavidin‐coated 96‐well plates (#436014; Thermo Scientific) in 100 μl PBS containing 0.1% Tween‐20 (PT) and 1% BSA (PTB) overnight on a shaker at 8°C. After three washing steps with 200 μl PT, 100 μl of 1 μM HIS6‐tagged mATG fusion proteins isolated from E. coli in PTB was incubated with the immobilized peptides for 1 h at 8°C. After three washing steps with 200 μl PT, HIS6‐ATG8 bound to peptides was detected after 1‐h incubation with anti‐HIS‐HRP antibody (JP‐A00612; Genscript; 1:5,000 in 100 μl PTB) with the help of TMB substrate Reagent Set (BD OptEIA; 75 μl). The reaction (blue coloration) was stopped by addition of 60 μl 1 M H3PO4. Samples were analysed on a Synergy H1 ELISA reader from BioTek at 450 nm.

GABARAP = target: T1, GABARAP (Homo sapiens, UniProt O95166); assay: ITC titration of PLEKHM1-LIR peptides into GABARAP; format: binding; details: for ΔH: VP-ITC, one-site model, 0.4 mM peptide into 0.020 mM protein, 50 mM Na2HPO4, 100 mM NaCl
T1 construct: modified Ub-leader (ubiquitin fusion leader) (N); made in house; host or cells: E. coli NEB T7 Express
T1 sequence (O95166 whole entry, the tested form may be a part): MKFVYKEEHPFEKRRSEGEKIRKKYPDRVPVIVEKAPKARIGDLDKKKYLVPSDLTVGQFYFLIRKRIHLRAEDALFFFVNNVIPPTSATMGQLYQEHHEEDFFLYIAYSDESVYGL
Procedure: (§1) The genes for the truncated LC3A^2–121, LC3C^8–125, GABARAP^2–117 and GABARAP‐L1^2–117 proteins were cloned into pET30ΔSE vector between the BamHI and XhoI sites using previously established protocols 38. The chimeric constructs of the PLEKHM1‐LIR attached to the LC3A, GABARAP and GABARAP‐L1 proteins were prepared by inserting the oligonucleotide sequence corresponding to the PLEKHM1‐LIR peptide (P^629[…]^638) and glycine–serine linker into the BamHI site of the pET30ΔSE vector, placing the PLEKHM1‐LIR at the N‐terminal of the mature chimeric protein (similar to 31, 38). For the expression of human LC3 and GABARAP proteins for ITC and NMR experiments, plasmids with appropriate modified Ub‐leaders in pET vectors were used 39. Gene, encoding PLEKHM1‐LIR peptide, was ordered as synthetic oligonucleotides (Eurofins Genomics GmbH) and cloned into the pET39_Ub63_ vector 39 by NcoI–BamHI restriction sites. After TEV cleavage, the resulting peptide has the amino acid sequence GAMG‐P^629[…]^642, where the first four residues (GAMG) are the cloning artefact.
(§2) The chimeric constructs were expressed as a His‐tag fusion protein in E. coli BL21(DE3) cells. The cells were induced with 0.3 mM IPTG at OD600 0.6 for 16 h at 26°C. The cell pellets were lysed using mechanical sonication in lysis buffer (20 mM Tris–HCl pH 9.0, 100 mM NaCl, 10 mM imidazole, supplemented with 0.1% Triton X‐100). The proteins were purified using Ni‐NTA beads (GE Healthcare) and the His‐tag was cleaved using thrombin (Invitrogen) at room temperature for 16 h. The last step was gel filtration chromatography using a Superdex S200/300 GL column (GE Healthcare). The proteins were concentrated using spin concentrators (Vivaspin). For ITC and NMR studies, the non‐labelled and stable isotopes labelled LC3 and GABARAP proteins were obtained based on the protocols described elsewhere 30, 39. Here, E. coli NEB T7 Express culture transformed with corresponding plasmids were grown till OD600 nm = 1.0 and protein expression was induced with 0.2 mM IPTG. The cultures were incubated at 25°C for 8–12 h before cell harvesting. Isolation and purification procedures were similar to those reported in Ref. 22, 40. Before experiments, all proteins and peptides were equilibrated with a buffer containing 50 mM Na2HPO4, 100 mM NaCl at pH 7.0, and supplied with 5 mM protease inhibitor cocktail.
(§3) The protocol for preparation of non‐labelled and ^13C,^15N‐labelled PLEKHM1‐LIR peptide was slightly modified to achieve highest yield of the peptide. The 50 ml M9 culture was inoculated with NEB T7 cell transformed with pET39_Ub63‐PLEKHM1‐LIR plasmid and grown overnight at 37°. The collected cells were resuspended in 2 l of either LB or M9 media contained 1.5 g ^15N‐labelled NH4Cl and 3.0 g of ^13C‐labelled glucose. The cultures were grown at 37° till A(600 nm) = 0.9 and supplied with 1 mM of IPTG to induce Ub63‐PLEKHM1‐LIR overexpression (3 h at 37°). After that cells were harvested by centrifugation, re‐suspended in buffer contained 50 mM Tris–HCl pH = 7.9, 200 mM NaCl, 5% glycerol, 0.1 mg/ml DNase A and 4 mM protease inhibitor cocktail. After cell lysis by French press, debris was removed by centrifugation and clear supernatant was applied onto the column contained Ni‐NTA Sepharose equilibrated with the loading buffer (50 mM Tris–HCl pH = 7.9, 250 mM NaCl, 1% glycerol and 20 mM imidazole). Elution was performed with 400 mM imidazole in the same buffer. An aliquot of pure Ub63‐PLEKHM1‐LIR fractions was further purified by gel filtration on Superdex75 26 × 60 column for control ITC and analytical size exclusion chromatography experiments, remaining fusion protein was processed with the TEV‐protease and PLEKHM1‐LIR peptide was purified to 95% purity by reverse Ni‐NTA chromatography and followed gel filtration on Superdex75 26 × 60 column. Peak maximum of peptide was detected at […] (void volume 115 ml). Pure peptide was concentrated in Amicon concentrators with cut‐off of 3 kDa (> 95% retention). […]

LC3B = target: T2, LC3B (Homo sapiens, UniProt Q9GZQ8); assay: ITC titration of PLEKHM1-LIR peptides into LC3B; format: binding; details: for ΔH: VP-ITC, one-site model, 0.4 mM peptide into 0.020 mM protein, 50 mM Na2HPO4, 100 mM NaCl
T2 construct: modified Ub-leader (ubiquitin fusion leader) (N); made in house; host or cells: E. coli NEB T7 Express
Procedure: as §1, §2, §3

LC3 and GABARAP families = details: cited from earlier work
Description: However, despite the ever‐increasing number of LC3/GABARAP interaction partners identified and perhaps the over‐reliance on LC3B as the main marker of autophagosomes, there is now emerging distinct roles of each LC3 and GABARAP subfamily. For example, both LC3 and GABARAP families are essential for autophagy flux 29; however, LC3s were reported to be involved in phagophore extension and GABARAPs required for autophagosome closure 29. Moreover, GABARAP can activate ULK1 complex to initiate autophagy, irrespective of its conjugation status 28. Indeed, this is also reflected in C. elegans homolog ...

[2] = weak interaction: N fixed to 1 upon fitting

Sequence	preference GABARAP versus LC3B [1]	ΔH (GABARAP; ITC, 25°C, pH 7.0) [kcal/mol]	ΔG (GABARAP; ITC, 25°C, pH 7.0) [kcal/mol]	ΔS (GABARAP; ITC, 25°C, pH 7.0)	−T × ΔS (GABARAP; ITC, 25°C, pH 7.0)	N (number of binding sites) (GABARAP; [2])	ΔH (LC3B; ITC, 25°C, pH 7.0) [kcal/mol]	ΔG (LC3B; ITC, 25°C, pH 7.0) [kcal/mol]	ΔS (LC3B; ITC, 25°C, pH 7.0)	−T × ΔS (LC3B; ITC, 25°C, pH 7.0) [kcal/mol]	N (number of binding sites) (LC3B; [2])	KA (GABARAP; ITC, 25°C, pH 7.0)	N (number of binding sites) (GABARAP; ITC, 25°C, pH 7.0)	KA (LC3B; ITC, 25°C, pH 7.0)	N (number of binding sites) (LC3B; ITC, 25°C, pH 7.0)	subfamily specificity (LC3 and GABARAP families)
ESDWVAVRP [JMY, LIR peptide 10–18]	strong preference for GABARAP versus LC3B	–	–	–	–	–	–	–	–	–	–	–	–	–	–	–
GAMGPQQEDEAVNVQYPD [PLEKHM1‐LIR W635A]	–	-1.1 ± 0.1	-5.40	+14.4 cal mol^−1 K^−1	-4.29 kcal/mol	1 ^a	-0.8 ± 0.1	-5.44	+15.4 cal mol^−1 K^−1	-4.59	1 ^a	–	–	–	–	–
GAMGPQQEDEWCILQYPD [PLEKHM1‐LIR VNV‐CIL]	–	-9.2 ± 0.1	-9.62	+1.49 cal mol^−1 K^−1	-0.44 kcal/mol	–	-7.9 ± 0.1	-8.84	+3.30 cal mol^−1 K^−1	-0.98	–	11.3 ± 0.38 ×10^6 M^−1	1.07 ± 0.01	3.03 ± 0.27 ×10^6 M^−1	1.06 ± 0.01	–
GAMGPQQEDEWGNVQYPD [PLEKHM1‐LIR V636G]	–	-7.5 ± 0.1	-5.83	−5.66 cal mol^−1 K^−1	+1.69 kcal mol^−1	1 ^a	-1.7 ± 0.1	-5.42	+12.4 cal mol^−1 K^−1	-3.70	1 ^a	0.02 ± 0.00 ×10^6 M^−1	–	–	–	–
GAMGPQQEDEWVGVQYPD [PLEKHM1‐LIR N637G]	–	-6.7 ± 0.1	-6.97	+1.07 cal mol^−1 K^−1	-0.32 kcal/mol	–	-1.4 ± 0.1	-5.87	+15.0 cal mol^−1 K^−1	-4.47	1 ^a	0.13 ± 0.01 ×10^6 M^−1	1.17 ± 0.04	0.02 ± 0.01 ×10^6 M^−1	–	–
SEDYIIILP [NBR1, LIR peptide 729–737]	–	–	–	–	–	–	–	–	–	–	–	–	–	–	–	GABARAP‐L1‐specific receptor
TDDFVLVPH [ULK2, LIR peptide 350–358]	clear specificity towards GABARAP versus LC3B	–	–	–	–	–	–	–	–	–	–	–	–	–	–	–
TDDFVMVPA [ULK1, LIR peptide 354–362]	clear specificity towards GABARAP versus LC3B	–	–	–	–	–	–	–	–	–	–	–	–	–	–	–
